# Source: PubChem BioAssay (NCI)
#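 Here, GI50 denotes the concentration required for 50% inhibition of growth. TGI: total growth inhibition.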
# Legend:
# Experiment in all cases: DTP human tumour cell line panel, 384-well format
# SK-MEL-5 melanoma = test system: SK-MEL-5 melanoma
# BT-549 breast = test system: BT-549 breast
# UACC-257 melanoma = test system: UACC-257 melanoma
# CAKI-1 renal = test system: CAKI-1 renal
# OVCAR-8 ovarian = test system: OVCAR-8 ovarian
# SK-MEL-28 melanoma = test system: SK-MEL-28 melanoma
# NCI-H23 lung = test system: NCI-H23 lung
# MOLT-4 leukemia = test system: MOLT-4 leukemia
# UO-31 renal = test system: UO-31 renal
# NCI-H226 lung = test system: NCI-H226 lung
# MDA-MB-231 breast = test system: MDA-MB-231 breast
# OVCAR-3 ovarian = test system: OVCAR-3 ovarian
# SN12C renal = test system: SN12C renal
# M14 melanoma = test system: M14 melanoma
# TK-10 renal = test system: TK-10 renal
# LOX IMVI melanoma = test system: LOX IMVI melanoma
# HT29 colon = test system: HT29 colon
# HS 578T breast = test system: HS 578T breast
# HL-60(TB) leukemia = test system: HL-60(TB) leukemia
# KM12 colon = test system: KM12 colon
# 786-0 renal = test system: 786-0 renal
# NCI-H322M lung = test system: NCI-H322M lung
# NCI/ADR-RES ovarian = test system: NCI/ADR-RES ovarian
# MDA-MB-468 breast = test system: MDA-MB-468 breast
# MCF7 breast = test system: MCF7 breast
# SF-268 CNS = test system: SF-268 CNS
# HOP-62 NSCLC = test system: HOP-62 NSCLC
# U251 glioblastoma = test system: U251 glioblastoma
# RXF 393 renal = test system: RXF 393 renal
structure (smiles),measurement,setting,value
Cc1ccc(NC(=O)c2ccc(CN3CCN(C)CC3)cc2)cc1Nc1nccc(-c2cccnc2)n1,TGI,SK-MEL-5 melanoma,22.2 µM
same,GI50,BT-549 breast,12.1 µM
same,TGI,BT-549 breast,24.6 µM
same,GI50,UACC-257 melanoma,2490 nM
same,TGI,UACC-257 melanoma,6.18 µM
same,GI50,CAKI-1 renal,16.7 µM
same,TGI,CAKI-1 renal,30.5 µM
same,GI50,OVCAR-8 ovarian,14.8 µM
same,TGI,OVCAR-8 ovarian,28.4 µM
same,GI50,SK-MEL-28 melanoma,14.4 µM
same,TGI,SK-MEL-28 melanoma,27.7 µM
same,GI50,NCI-H23 lung,11.5 µM
same,TGI,NCI-H23 lung,24.3 µM
same,GI50,MOLT-4 leukemia,4.23 µM
same,TGI,MOLT-4 leukemia,15.4 µM
same,GI50,UO-31 renal,15.8 µM
same,TGI,UO-31 renal,30.6 µM
same,GI50,NCI-H226 lung,6.87 µM
same,TGI,NCI-H226 lung,19.1 µM
same,GI50,MDA-MB-231 breast,12.6 µM
same,TGI,MDA-MB-231 breast,26.7 µM
same,GI50,OVCAR-3 ovarian,17.1 µM
same,TGI,OVCAR-3 ovarian,31.8 µM
same,GI50,SN12C renal,24.7 µM
same,TGI,SN12C renal,64.4 µM
same,GI50,M14 melanoma,5.66 µM
same,TGI,M14 melanoma,16.7 µM
same,GI50,TK-10 renal,20.3 µM
same,TGI,TK-10 renal,43.1 µM
same,GI50,LOX IMVI melanoma,4.25 µM
same,TGI,LOX IMVI melanoma,14.9 µM
same,GI50,HT29 colon,2660 nM
same,TGI,HT29 colon,6.67 µM
same,GI50,HS 578T breast,12.9 µM
same,TGI,HS 578T breast,25.6 µM
same,GI50,HL-60(TB) leukemia,5.97 µM
same,TGI,HL-60(TB) leukemia,16 µM
same,GI50,KM12 colon,14.3 µM
same,TGI,KM12 colon,27.6 µM
same,GI50,786-0 renal,2870 nM
same,TGI,786-0 renal,7.97 µM
same,GI50,NCI-H322M lung,8.53 µM
same,TGI,NCI-H322M lung,21.2 µM
same,GI50,NCI/ADR-RES ovarian,17.2 µM
same,TGI,NCI/ADR-RES ovarian,32.1 µM
same,GI50,MDA-MB-468 breast,5.1 µM
same,TGI,MDA-MB-468 breast,17.9 µM
same,GI50,MCF7 breast,10.6 µM
same,TGI,MCF7 breast,22.7 µM
same,GI50,SF-268 CNS,18.7 µM
same,TGI,SF-268 CNS,36.2 µM
same,GI50,HOP-62 NSCLC,14.2 µM
same,TGI,HOP-62 NSCLC,27.4 µM
same,GI50,U251 glioblastoma,14.1 µM
same,TGI,U251 glioblastoma,28 µM
same,GI50,RXF 393 renal,3.61 µM
same,TGI,RXF 393 renal,16.2 µM
